Measured values taken from ChEMBL document CHEMBL4507295 (2021).

What was measured:
[1] = molecular target: Bone morphogenetic protein receptor type-2 (Homo sapiens) (UniProt Q13873); conditions: Compound concentration 1000.0 nM
[2] = molecular target: Serine/threonine-protein kinase/endoribonuclease IRE1 (Homo sapiens) (UniProt O75460); conditions: Compound concentration 1000.0 nM
[3] = molecular target: Mitogen-activated protein kinase kinase kinase 13 (Homo sapiens) (UniProt O43283); conditions: Compound concentration 1000.0 nM
[4] = molecular target: Mitogen-activated protein kinase kinase kinase 5 (Homo sapiens) (UniProt Q99683); conditions: Compound concentration 1000.0 nM
[5] = molecular target: STE20-like serine/threonine-protein kinase (Homo sapiens) (UniProt Q9H2G2); conditions: Compound concentration 1000.0 nM
[6] = molecular target: T1, Alpha-2B adrenergic receptor (Homo sapiens) (UniProt P18089); conditions: Compound concentration 10.0 uM
T1 sequence (whole entry): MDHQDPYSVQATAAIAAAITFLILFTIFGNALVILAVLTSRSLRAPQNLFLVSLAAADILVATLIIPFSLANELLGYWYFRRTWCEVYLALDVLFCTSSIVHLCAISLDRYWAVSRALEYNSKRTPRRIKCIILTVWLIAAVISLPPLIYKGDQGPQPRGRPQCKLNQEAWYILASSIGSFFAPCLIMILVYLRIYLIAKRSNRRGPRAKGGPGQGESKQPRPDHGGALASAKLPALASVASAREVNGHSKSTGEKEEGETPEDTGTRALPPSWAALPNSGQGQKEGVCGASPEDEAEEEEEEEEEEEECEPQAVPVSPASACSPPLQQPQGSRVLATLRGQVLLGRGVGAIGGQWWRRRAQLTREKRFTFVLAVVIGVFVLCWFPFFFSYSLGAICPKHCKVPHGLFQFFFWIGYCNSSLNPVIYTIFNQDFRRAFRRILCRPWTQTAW

[7] = molecular target: Tyrosine-protein kinase Fes/Fps (Homo sapiens) (UniProt P07332); conditions: Compound concentration 1000.0 nM
[8] = molecular target: Phosphorylase b kinase regulatory subunit alpha, liver isoform (Homo sapiens) (UniProt P46019); conditions: Compound concentration 1000.0 nM
[9] = molecular target: Calcium/calmodulin-dependent protein kinase type 1G (Homo sapiens) (UniProt Q96NX5); conditions: Compound concentration 1000.0 nM
[10] = tested on: Tyrosine-protein kinase ABL1 (Homo sapiens), P00519 [Y253F]; conditions: Compound concentration 1000.0 nM
[11] = molecular target: 5-hydroxytryptamine receptor 1B (Homo sapiens) (UniProt P28222); conditions: Compound concentration 10.0 uM
[12] = molecular target: Serine/threonine-protein kinase tousled-like 1 (Homo sapiens) (UniProt Q9UKI8); conditions: Compound concentration 1000.0 nM
[13] = molecular target: Mitogen-activated protein kinase kinase kinase 4 (Homo sapiens) (UniProt Q9Y6R4); conditions: Compound concentration 1000.0 nM
[14] = molecular target: Tyrosine-protein kinase Tec (Homo sapiens) (UniProt P42680); conditions: Compound concentration 1000.0 nM
[15] = molecular target: Serine/threonine-protein kinase 4 (Homo sapiens) (UniProt Q13043); conditions: Compound concentration 1000.0 nM
[16] = molecular target: Cyclin-dependent kinase 11B (Homo sapiens) (UniProt P21127); conditions: Compound concentration 1000.0 nM
[17] = molecular target: Mitogen-activated protein kinase kinase kinase 11 (Homo sapiens) (UniProt Q16584); conditions: Compound concentration 1000.0 nM
[18] = molecular target: Ephrin type-A receptor 2 (Homo sapiens) (UniProt P29317); conditions: Compound concentration 1000.0 nM
[19] = molecular target: Mitogen-activated protein kinase kinase kinase 7 (Homo sapiens) (UniProt O43318); conditions: Compound concentration 1000.0 nM
[20] = molecular target: NUAK family SNF1-like kinase 1 (Homo sapiens) (UniProt O60285); conditions: Compound concentration 1000.0 nM
[21] = molecular target: Ephrin type-B receptor 4 (Homo sapiens) (UniProt P54760); conditions: Compound concentration 1000.0 nM
[22] = molecular target: Rhodopsin kinase GRK7 (Homo sapiens) (UniProt Q8WTQ7); conditions: Compound concentration 1000.0 nM
[23] = molecular target: Bone morphogenetic protein receptor type-1B (Homo sapiens) (UniProt O00238); conditions: Compound concentration 1000.0 nM
[24] = molecular target: 3-phosphoinositide-dependent protein kinase 1 (Homo sapiens) (UniProt O15530); conditions: Compound concentration 1000.0 nM
[25] = molecular target: Mitogen-activated protein kinase kinase kinase 12 (Homo sapiens) (UniProt Q12852); conditions: Compound concentration 1000.0 nM
[26] = molecular target: Protein kinase C theta type (Homo sapiens) (UniProt Q04759); conditions: Compound concentration 1000.0 nM
[27] = tested on: Epidermal growth factor receptor (Homo sapiens), P00533 [G719S]; conditions: Compound concentration 1000.0 nM
[28] = molecular target: Aurora kinase A (Homo sapiens) (UniProt O14965); conditions: Compound concentration 1000.0 nM
[29] = molecular target: Tyrosine-protein kinase SYK (Homo sapiens) (UniProt P43405); conditions: Compound concentration 1000.0 nM
[30] = molecular target: Serine/threonine-protein kinase WNK1 (Homo sapiens) (UniProt Q9H4A3); conditions: Compound concentration 1000.0 nM
[31] = tested on: Tyrosine-protein kinase ABL1 (Homo sapiens), P00519 [H396P]; conditions: Compound concentration 1000.0 nM
[32] = molecular target: Serine/threonine-protein kinase LATS1 (Homo sapiens) (UniProt O95835); conditions: Compound concentration 1000.0 nM
[33] = molecular target: Serine/threonine-protein kinase 38 (Homo sapiens) (UniProt Q15208); conditions: Compound concentration 1000.0 nM
[34] = tested on: Mast/stem cell growth factor receptor Kit (Homo sapiens), P10721 [L576P]; conditions: Compound concentration 1000.0 nM
[35] = molecular target: Mitogen-activated protein kinase 4 (Homo sapiens) (UniProt P31152); conditions: Compound concentration 1000.0 nM
[36] = molecular target: Ephrin type-B receptor 2 (Homo sapiens) (UniProt P29323); conditions: Compound concentration 1000.0 nM
[37] = molecular target: Serine/threonine-protein kinase Nek3 (Homo sapiens) (UniProt P51956); conditions: Compound concentration 1000.0 nM
[38] = molecular target: Ribosomal protein S6 kinase beta-1 (Homo sapiens) (UniProt P23443); conditions: Compound concentration 1000.0 nM
[39] = molecular target: Sodium-dependent noradrenaline transporter (Homo sapiens) (UniProt P23975); conditions: Compound concentration 10.0 uM
Sequence of Sodium-dependent noradrenaline transporter (Homo sapiens) (P23975 whole entry): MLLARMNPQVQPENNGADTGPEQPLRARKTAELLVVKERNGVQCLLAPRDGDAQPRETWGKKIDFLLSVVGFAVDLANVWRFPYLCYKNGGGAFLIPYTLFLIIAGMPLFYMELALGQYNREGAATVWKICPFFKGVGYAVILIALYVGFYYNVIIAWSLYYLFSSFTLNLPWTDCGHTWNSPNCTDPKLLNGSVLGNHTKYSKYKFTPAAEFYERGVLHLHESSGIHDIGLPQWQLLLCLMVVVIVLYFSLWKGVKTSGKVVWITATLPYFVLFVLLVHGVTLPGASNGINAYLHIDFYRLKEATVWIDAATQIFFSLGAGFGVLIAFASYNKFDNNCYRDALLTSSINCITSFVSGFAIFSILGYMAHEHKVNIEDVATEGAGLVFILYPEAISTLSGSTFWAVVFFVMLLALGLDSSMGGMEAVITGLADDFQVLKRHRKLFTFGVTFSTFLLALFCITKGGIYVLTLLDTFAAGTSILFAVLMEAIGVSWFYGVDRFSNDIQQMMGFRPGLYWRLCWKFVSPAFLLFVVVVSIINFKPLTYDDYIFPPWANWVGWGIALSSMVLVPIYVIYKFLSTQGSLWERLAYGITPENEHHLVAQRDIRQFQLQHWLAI

Sequence of Ephrin type-B receptor 4 (Homo sapiens) (P54760 whole entry): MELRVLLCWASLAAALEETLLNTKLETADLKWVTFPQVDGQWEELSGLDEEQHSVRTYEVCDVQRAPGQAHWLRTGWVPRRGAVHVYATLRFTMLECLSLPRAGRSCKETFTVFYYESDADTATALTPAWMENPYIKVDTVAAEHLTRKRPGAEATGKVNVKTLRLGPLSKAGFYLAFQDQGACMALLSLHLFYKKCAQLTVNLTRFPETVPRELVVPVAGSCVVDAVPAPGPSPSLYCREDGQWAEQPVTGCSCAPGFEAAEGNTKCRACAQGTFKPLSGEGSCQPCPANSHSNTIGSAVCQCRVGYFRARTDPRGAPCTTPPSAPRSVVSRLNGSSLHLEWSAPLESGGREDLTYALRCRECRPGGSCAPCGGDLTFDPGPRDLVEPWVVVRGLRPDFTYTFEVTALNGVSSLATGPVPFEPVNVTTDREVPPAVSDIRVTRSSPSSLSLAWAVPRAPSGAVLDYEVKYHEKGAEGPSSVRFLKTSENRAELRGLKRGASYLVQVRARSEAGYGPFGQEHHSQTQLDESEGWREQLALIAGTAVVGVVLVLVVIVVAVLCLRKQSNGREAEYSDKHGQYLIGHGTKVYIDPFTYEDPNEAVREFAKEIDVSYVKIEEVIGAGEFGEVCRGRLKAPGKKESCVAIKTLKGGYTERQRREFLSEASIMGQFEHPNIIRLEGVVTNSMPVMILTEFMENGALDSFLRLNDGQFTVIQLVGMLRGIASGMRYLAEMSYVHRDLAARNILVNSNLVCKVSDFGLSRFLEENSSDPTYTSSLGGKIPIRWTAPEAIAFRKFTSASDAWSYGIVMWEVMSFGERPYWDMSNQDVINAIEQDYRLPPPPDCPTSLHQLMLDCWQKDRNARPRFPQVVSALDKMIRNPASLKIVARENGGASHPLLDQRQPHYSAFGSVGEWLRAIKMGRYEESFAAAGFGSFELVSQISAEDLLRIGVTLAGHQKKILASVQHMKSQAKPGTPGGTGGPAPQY
Sequence of Calcium/calmodulin-dependent protein kinase type 1G (Homo sapiens) (Q96NX5 whole entry): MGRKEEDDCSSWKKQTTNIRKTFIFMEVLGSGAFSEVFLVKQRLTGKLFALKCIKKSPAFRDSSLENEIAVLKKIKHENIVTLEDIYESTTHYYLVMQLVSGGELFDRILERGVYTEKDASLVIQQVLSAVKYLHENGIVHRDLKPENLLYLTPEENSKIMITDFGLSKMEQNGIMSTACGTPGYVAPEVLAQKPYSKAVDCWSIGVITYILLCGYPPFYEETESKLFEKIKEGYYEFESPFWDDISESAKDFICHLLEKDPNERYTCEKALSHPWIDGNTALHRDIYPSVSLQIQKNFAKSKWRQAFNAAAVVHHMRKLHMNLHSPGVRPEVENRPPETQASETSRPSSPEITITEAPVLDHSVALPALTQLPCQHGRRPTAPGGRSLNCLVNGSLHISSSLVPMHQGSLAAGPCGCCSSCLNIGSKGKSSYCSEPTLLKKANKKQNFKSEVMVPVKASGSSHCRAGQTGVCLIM
Sequence of STE20-like serine/threonine-protein kinase (Homo sapiens) (Q9H2G2 whole entry, looked up): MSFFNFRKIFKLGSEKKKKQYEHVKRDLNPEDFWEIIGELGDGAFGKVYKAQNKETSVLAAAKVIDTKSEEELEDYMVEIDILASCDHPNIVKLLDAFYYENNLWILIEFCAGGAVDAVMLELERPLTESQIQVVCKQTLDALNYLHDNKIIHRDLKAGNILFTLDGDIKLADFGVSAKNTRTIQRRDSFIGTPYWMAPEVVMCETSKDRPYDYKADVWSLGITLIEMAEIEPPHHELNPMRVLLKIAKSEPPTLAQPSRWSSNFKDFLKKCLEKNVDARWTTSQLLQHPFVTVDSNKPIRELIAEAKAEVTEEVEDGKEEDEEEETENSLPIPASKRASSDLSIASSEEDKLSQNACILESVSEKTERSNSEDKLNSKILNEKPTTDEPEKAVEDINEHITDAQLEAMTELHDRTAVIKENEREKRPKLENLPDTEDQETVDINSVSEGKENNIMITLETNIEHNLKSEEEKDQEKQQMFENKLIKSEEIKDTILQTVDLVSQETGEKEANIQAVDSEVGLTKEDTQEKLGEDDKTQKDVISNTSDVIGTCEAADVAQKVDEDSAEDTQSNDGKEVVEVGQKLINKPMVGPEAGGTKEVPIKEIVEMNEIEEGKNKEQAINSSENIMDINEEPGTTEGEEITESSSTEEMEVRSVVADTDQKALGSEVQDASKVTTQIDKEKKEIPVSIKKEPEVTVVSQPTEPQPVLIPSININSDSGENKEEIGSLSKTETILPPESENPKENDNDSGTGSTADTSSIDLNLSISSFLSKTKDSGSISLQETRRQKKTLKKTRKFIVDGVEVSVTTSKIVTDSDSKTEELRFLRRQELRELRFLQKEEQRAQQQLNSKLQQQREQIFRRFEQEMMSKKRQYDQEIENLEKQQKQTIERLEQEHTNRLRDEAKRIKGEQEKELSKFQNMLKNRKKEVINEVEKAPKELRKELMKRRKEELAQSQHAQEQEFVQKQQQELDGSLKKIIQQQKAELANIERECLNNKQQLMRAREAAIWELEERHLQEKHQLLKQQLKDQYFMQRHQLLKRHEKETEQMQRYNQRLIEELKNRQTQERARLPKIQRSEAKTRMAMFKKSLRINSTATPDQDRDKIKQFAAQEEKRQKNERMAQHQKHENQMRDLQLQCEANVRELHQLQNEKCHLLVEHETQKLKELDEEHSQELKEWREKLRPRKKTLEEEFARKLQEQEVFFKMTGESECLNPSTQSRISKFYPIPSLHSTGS
Sequence of Tyrosine-protein kinase Tec (Homo sapiens) (P42680 whole entry): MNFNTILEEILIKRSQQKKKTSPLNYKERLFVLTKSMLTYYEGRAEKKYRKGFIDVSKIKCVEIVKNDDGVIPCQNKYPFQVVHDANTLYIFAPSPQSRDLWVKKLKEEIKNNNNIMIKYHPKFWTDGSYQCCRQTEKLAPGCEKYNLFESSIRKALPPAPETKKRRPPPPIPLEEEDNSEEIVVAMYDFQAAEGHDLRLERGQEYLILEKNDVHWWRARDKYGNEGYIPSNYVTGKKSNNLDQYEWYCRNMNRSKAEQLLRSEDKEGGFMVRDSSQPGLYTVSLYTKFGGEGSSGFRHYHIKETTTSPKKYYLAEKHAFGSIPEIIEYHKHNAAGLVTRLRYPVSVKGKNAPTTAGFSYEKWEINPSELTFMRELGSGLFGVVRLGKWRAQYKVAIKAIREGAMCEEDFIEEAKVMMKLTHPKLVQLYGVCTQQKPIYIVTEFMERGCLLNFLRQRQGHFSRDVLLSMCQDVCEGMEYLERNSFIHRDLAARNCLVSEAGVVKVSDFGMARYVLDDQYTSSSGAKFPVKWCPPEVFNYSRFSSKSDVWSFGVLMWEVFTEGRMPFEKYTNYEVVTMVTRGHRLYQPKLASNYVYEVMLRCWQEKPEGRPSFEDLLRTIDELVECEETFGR
Sequence of Mitogen-activated protein kinase kinase kinase 13 (Homo sapiens) (O43283 whole entry): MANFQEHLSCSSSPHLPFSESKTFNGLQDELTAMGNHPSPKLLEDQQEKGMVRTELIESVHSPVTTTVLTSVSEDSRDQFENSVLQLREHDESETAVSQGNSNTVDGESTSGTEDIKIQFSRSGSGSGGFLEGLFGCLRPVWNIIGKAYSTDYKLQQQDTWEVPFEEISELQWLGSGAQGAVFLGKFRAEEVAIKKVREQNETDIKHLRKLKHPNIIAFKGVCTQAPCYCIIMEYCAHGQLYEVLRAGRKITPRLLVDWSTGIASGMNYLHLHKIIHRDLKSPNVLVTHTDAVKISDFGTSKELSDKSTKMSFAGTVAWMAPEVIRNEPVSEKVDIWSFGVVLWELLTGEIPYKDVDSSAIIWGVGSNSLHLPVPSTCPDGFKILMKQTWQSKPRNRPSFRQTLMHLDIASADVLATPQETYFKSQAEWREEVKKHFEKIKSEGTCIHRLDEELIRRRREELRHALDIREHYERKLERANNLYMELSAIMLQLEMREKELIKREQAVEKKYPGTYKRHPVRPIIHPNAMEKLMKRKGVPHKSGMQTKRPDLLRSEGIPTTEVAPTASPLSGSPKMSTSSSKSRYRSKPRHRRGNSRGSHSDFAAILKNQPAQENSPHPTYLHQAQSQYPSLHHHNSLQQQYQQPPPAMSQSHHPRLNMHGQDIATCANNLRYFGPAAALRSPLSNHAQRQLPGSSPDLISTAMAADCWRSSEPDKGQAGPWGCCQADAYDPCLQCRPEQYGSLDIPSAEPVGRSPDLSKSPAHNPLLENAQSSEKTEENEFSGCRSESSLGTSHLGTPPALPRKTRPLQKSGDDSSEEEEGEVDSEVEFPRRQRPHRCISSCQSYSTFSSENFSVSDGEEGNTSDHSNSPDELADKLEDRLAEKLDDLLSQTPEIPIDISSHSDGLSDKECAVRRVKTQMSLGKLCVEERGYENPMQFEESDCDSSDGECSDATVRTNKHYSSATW

SMILES	residual activity [1]	residual activity [2]	residual activity [3]	residual activity [4]	residual activity [5]	inhibition [6]	residual activity [7]	residual activity [8]	residual activity [9]	residual activity [10]	inhibition [11]	residual activity [12]	residual activity [13]	residual activity [14]	residual activity [15]	residual activity [16]	residual activity [17]	residual activity [18]	residual activity [19]	residual activity [20]	other results
N#CC1(c2ccccn2)CCN(Cc2cc(C(=O)O)c(=O)n3ccccc23)CC1 [MSD-M1PAM]	89%	81%	78%	75%	99%	-6.86%	99%	100%	100%	72%	2.72%	97%	100%	100%	100%	100%	100%	83%	90%	98%	residual activity [21]: 83%; residual activity [22]: 77%; residual activity [23]: 67%; residual activity [24]: 100%; residual activity [25]: 93%; residual activity [26]: 96%; residual activity [27]: 90%; residual activity [28]: 100%; residual activity [29]: 92%; residual activity [30]: 97%; residual activity [31]: 80%; residual activity [32]: 100%; residual activity [33]: 93%; residual activity [34]: 100%; residual activity [35]: 100%; residual activity [36]: 100%; residual activity [37]: 66%; residual activity [38]: 96%; inhibition [39]: 24.7%
N#CC1(c2ccccn2)CCN(Cc2cc(C(=O)N3CCCC3)c(=O)n3ccccc23)CC1	92%	100%	100%	80%	100%	-2.99%	99%	85%	100%	92%	13%	85%	90%	100%	88%	80%	89%	86%	99%	86%	residual activity [21]: 100%; residual activity [22]: 87%; residual activity [23]: 95%; residual activity [24]: 81%; residual activity [25]: 100%; residual activity [26]: 100%; residual activity [27]: 100%; residual activity [28]: 90%; residual activity [29]: 92%; residual activity [30]: 100%; residual activity [31]: 77%; residual activity [32]: 100%; residual activity [33]: 64%; residual activity [34]: 100%; residual activity [35]: 76%; residual activity [36]: 77%; residual activity [37]: 83%; residual activity [38]: 34%; inhibition [39]: 40.5%
